The values below come from patent US6166004A, “Combinations of HIV protease inhibitors with reverse transcriptase inhibitors” (Novartis Finance Corporation, priority 1996, dated 2000).

In assay [1] the test system is 46I/47V/50V (VX478) strain. Nature of the assay: Transient DNA transfection assay, resistant strain 46I/47V/50V (VX478). The format is cell-based, HIV-1. Particulars: 10 nM, not quantified. The source says: (§1) Inhibitor-resistant HIV-1 protease variants are cloned as follows:
(§2) By way of PCR-supported mutagenesis and cloning, HIV-1 protease mutants are generated that are based on the infectious clone pNL4-3 (freely available via the "NIH AIDS reference and reagent program", the original reference is A. Adachi et al. J. Virol (1986) 59, 284-91--but it can, of course, be any other HIV clone, or even clinical material, provided that comparability is ensured). […] The cloned fragments are, for example, only 500 base pairs in length, all of the remainder being unchanged. By using mutations in always the same clone, direct comparability is ensured, which would not be the case in a direct comparison of clinical samples or of different HIV clones.
(§3) That system is used as a transient DNA transfection system for tests:
(§4) 1) in order to identify possible cross-resistances of protease variants to several protease inhibitors; and
(§5) 2) in order to establish the potency and resistance profile of novel inhibitor candidates.
(§6) Instead of the strains mentioned, there may be used any human T4-positive cells, such as the HeLaT4 cells, deposited under that name by Richard Axel and Paul Maddon in "NIH AIDS reference and reagent program" and obtainable via that source.

The subject of assay [2] is HIV-1 protease resistant variant (451/76F strain).
Source text: as §1, §2, §3, §4, §5, §6

In assay [3] the test system is HIV-1 (pNL4-3 clone) in HeLaT4 cells. Nature of the assay: Transient DNA transfection assay in HeLaT4 cells (HIV clone pNL4-3), potency. The class given is cell-based. Conditions: transfection system.
Source text: as §1, §2, §3, §4, §5, §6

Regarding `COC(=O)N[C@H](C(=O)N[C@@H](Cc1ccccc1)[C@@H](O)CN(Cc1ccc(-c2ccccn2)cc1)NC(=O)[C@@H](NC(=O)OC)C(C)(C)C)C(C)(C)C` [Example 46, 1-[4-(Pyridin-2-yl)-phenyl]-4(S)-hydroxy-5(S)-2,5-bis[N-(N-methoxycarbonyl-(L)-tert-leucyl)amino]-6-phenyl-2-azahexane], in assay [1], the “activity compared with saquinavir, ritonavir and indinavir” value is “more potent (not quantified) than that of saquinavir, ritonavir and indinavir”. The “activity against resistant variant compared with other protease inhibitors” value in assay [2] was “comparable with saquinavir and better than that of indinavir (Merck & Co., Inc., see below) or ritonavir”. Also, in assay [3], the “in vitro potency compared with saquinavir” value is recorded as “in practical terms better than that of saquinavir”.
